Laboratory results from ChEMBL document CHEMBL1201862, “PubChem BioAssay data set” (2004).
Active and inactive are the calls of the source.

Columns and labels:
[1] = biological target: Induced myeloid leukemia cell differentiation protein Mcl-1 (Homo sapiens, UniProt Q07820); assay: MCL1-BIM BH3 interaction inhibitors, dose response, biochemical, fluorescence polarization, BIM-BH3 peptide, 1536-well (AID 2217)
Bcl-2-like protein 1 = Bcl-2-like protein 1 (Homo sapiens, UniProt Q07817); assay: BCL-XL inhibitors, dose response, selectivity assay for MCL1 inhibitor project, biochemical, fluorescence polarization, 1536-well (AID 2218)
Caspase-6 = biological target: T1, Caspase-6 (Homo sapiens, UniProt P55212); assay: human caspase-6 inhibitors, dose response, biochemical, VEID-R110 fluorescence, cherry-pick (AID 720632)
T1 sequence (P55212 whole entry): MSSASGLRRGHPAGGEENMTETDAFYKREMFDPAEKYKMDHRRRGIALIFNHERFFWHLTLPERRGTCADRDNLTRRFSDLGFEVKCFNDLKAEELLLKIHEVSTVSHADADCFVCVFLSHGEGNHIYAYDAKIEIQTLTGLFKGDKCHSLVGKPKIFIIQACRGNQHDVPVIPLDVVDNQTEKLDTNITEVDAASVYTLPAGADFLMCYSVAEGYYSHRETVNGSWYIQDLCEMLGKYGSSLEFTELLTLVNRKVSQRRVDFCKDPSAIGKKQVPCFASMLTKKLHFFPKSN

[2] = biological target: Ubiquitin carboxyl-terminal hydrolase BAP1 (Homo sapiens, UniProt Q92560); assay: BAP1 deubiquitinase inhibitors, dose response, biochemical (AID 714); type: functional
Estrogen receptor = biological target: T2, Estrogen receptor (Homo sapiens, UniProt P03372);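 further: potency for inhibiting coactivator peptide recruitment to the receptor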
T2 sequence (P03372 whole entry): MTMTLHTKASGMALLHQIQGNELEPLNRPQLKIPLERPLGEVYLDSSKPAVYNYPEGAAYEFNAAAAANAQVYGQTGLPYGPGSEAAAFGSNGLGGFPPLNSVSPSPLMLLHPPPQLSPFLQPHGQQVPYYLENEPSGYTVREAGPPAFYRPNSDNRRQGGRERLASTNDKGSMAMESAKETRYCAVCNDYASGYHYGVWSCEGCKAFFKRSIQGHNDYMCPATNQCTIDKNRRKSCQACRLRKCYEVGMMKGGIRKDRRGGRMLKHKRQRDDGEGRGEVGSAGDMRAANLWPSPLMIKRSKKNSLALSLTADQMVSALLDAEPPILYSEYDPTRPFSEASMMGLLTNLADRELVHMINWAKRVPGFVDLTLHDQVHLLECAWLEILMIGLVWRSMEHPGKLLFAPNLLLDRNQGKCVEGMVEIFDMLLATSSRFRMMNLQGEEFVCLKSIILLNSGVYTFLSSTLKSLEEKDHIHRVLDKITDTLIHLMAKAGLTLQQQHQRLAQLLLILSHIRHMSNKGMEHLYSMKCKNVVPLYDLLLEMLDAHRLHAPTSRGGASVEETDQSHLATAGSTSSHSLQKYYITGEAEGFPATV

[3] = biological target: Tyrosine-protein phosphatase non-receptor type 7 (Homo sapiens, UniProt P35236); assay: inhibitors of human HePTP phosphatase, […], biochemical, absorbance, leukemia target (AID 521); type: functional
Sequence of Tyrosine-protein phosphatase non-receptor type 7 (P35236 whole entry): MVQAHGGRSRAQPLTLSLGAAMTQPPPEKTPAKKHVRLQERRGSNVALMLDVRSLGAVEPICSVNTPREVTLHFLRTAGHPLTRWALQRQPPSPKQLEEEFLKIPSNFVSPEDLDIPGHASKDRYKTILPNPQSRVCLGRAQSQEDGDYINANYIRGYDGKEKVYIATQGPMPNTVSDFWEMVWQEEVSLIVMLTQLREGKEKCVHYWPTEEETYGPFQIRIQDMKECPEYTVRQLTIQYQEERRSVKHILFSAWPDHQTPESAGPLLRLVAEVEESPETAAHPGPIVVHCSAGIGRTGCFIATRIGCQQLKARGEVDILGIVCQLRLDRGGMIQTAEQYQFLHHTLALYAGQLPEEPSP

Bcl-2-related protein A1 [4] = biological target: T3, Bcl-2-related protein A1 (Mus musculus, UniProt Q07440); assay: Bfl-1 inhibitors, primary screen, biochemical, fluorescence polarization, FITC-Bid, mouse (AID 432)
T3 sequence (Q07440 whole entry): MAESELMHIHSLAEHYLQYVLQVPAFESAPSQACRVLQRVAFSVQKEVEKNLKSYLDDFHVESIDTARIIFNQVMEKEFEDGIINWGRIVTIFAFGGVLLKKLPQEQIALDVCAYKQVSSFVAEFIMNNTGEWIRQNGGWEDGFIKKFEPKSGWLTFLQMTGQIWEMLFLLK

Bcl-2-related protein A1 [5] = biological target: T3, Bcl-2-related protein A1; assay: Bfl-1 inhibitors blocking BH3 peptide binding, confirmation, biochemical, TR-FRET, mouse Bfl-1 (AID 621);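 further: TR-FRET binding of GST-Bfl-1 to FITC-labelled Bid peptide via terbium antibody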
[6] = biological target: Protein-tyrosine kinase 2-beta (Homo sapiens, UniProt Q14289);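 further: potency of inhibitors of PYK2 kinase phosphorylation of poly-GT substrate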
Sequence of Protein-tyrosine kinase 2-beta (Q14289 whole entry): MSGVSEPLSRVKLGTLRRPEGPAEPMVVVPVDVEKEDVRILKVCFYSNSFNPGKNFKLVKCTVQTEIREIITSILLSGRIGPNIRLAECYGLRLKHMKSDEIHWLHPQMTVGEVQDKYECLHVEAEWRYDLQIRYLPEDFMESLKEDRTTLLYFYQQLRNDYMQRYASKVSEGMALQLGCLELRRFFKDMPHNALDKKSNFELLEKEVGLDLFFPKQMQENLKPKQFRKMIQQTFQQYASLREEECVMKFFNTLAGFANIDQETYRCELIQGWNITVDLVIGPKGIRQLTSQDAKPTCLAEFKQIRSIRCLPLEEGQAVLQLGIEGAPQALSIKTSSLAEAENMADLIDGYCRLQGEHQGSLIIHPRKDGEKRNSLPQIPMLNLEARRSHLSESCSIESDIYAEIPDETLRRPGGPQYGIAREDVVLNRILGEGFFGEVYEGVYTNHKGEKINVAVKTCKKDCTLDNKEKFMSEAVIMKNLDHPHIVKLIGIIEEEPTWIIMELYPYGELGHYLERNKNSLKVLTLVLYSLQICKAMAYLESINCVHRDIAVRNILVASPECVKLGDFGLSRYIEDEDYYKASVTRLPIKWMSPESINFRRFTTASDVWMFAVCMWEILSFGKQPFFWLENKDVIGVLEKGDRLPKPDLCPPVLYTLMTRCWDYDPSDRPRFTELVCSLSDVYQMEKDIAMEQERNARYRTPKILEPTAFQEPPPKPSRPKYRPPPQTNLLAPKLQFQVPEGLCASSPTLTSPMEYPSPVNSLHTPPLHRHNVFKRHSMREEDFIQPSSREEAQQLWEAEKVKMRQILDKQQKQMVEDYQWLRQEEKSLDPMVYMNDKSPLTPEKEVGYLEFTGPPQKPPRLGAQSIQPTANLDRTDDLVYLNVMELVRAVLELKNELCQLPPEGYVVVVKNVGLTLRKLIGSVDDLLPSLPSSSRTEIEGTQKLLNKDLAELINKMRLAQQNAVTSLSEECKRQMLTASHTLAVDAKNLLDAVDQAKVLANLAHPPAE

[7] = biological target: Dual specificity protein phosphatase 6 (Rattus norvegicus, UniProt Q64346); assay: MKP-3 phosphatase inhibitors, primary screen, biochemical, rat enzyme, in vitro (AID 425)
Sequence of Dual specificity protein phosphatase 6 (Q64346 whole entry, the tested form may be a part): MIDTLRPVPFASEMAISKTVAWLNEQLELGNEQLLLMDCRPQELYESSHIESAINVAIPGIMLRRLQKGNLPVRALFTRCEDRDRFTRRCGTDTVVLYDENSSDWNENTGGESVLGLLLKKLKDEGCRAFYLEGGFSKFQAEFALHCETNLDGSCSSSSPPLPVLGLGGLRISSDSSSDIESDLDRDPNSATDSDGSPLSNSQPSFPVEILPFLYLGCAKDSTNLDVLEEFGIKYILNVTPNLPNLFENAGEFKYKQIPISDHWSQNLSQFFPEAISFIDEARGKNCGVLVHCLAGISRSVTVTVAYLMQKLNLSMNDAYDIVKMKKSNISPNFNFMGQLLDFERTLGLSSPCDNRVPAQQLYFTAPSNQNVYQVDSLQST

[8] = biological target: T4, Carboxy-terminal domain RNA polymerase II polypeptide A small phosphatase 1 (Homo sapiens, UniProt Q9GZU7); assay: inhibitors of CTDSP1, concentration-response testing, biochemical assay, absorbance-based, actives from ultra-high-throughput screening (AID 540297); type: functional
T4 sequence (Q9GZU7 whole entry): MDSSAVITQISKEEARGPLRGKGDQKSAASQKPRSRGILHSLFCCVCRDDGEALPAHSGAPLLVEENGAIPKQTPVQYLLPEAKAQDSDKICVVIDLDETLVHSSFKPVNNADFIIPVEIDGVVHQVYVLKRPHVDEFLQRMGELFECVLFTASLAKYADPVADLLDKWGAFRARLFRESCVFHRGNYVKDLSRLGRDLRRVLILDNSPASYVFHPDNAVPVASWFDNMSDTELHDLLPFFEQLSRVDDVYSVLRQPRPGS

[9] = M. tuberculosis growth inhibition, HTS (AID 449762); type: functional
Galanin receptor type 2 = Galanin receptor type 2 (Homo sapiens, UniProt O43603); assay: Dose Response cell-based high-throughput screening assay to identify agonists of galanin receptor 2 (GALR2). [Related pubchem assays: 864 ]; type: functional
[10] = Luminescence Cell-Based Dose Confirmation HTS to Identify Inhibitors of Polyadenylation.; type: functional
[11] = biological target: Diphosphomevalonate decarboxylase (Streptococcus pneumoniae serotype 2 (strain D39 / NCTC 7466), UniProt Q9FD53); assay: S. pneumoniae DPM-DC inhibition retest, confirmation, biochemical, cuvette format, coupled NADH fluorescence (AID 1028); type: functional
[12] = biological target: Peroxisome proliferator-activated receptor gamma/Nuclear receptor corepressor 2 (Homo sapiens, UniProt P37231+Q9Y618); assay: Counterscreen for NR2E3 inverse agonists: TR-FRET-based biochemical high throughput dose response assay to identify inverse agonists of the interaction between peroxisome proliferator-activated receptor gamma (PPARg) and nuclear receptor co-repressor 2 (NCOR2).; type: functional
[13] = biological target: Photoreceptor-specific nuclear receptor (Homo sapiens, UniProt Q9Y5X4); assay: NR2E3 inverse agonists, dose response, biochemical, TR-FRET (AID 463256); type: functional
Sequence of Photoreceptor-specific nuclear receptor (Q9Y5X4 whole entry): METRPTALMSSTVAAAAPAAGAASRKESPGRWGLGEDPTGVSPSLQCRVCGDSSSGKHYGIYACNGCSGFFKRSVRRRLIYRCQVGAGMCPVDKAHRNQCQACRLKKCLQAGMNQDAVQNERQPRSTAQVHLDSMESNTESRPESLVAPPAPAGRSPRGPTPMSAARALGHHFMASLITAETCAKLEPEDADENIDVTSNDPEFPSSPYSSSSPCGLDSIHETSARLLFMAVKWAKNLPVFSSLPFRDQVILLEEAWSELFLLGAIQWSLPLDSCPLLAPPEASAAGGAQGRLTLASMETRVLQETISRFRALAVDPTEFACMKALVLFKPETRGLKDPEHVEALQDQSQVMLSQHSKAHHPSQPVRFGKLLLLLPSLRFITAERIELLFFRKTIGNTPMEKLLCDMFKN

[14] = biological target: Tyrosine-protein phosphatase non-receptor type 11 (Homo sapiens, UniProt Q06124); assay: SHP2 phosphatase inhibition, dose response, selectivity assay for STEP inhibitor project, biochemical (AID 602367); type: functional; conditions: read-out: IC50_Mean
Sequence of Tyrosine-protein phosphatase non-receptor type 11 (Q06124 whole entry): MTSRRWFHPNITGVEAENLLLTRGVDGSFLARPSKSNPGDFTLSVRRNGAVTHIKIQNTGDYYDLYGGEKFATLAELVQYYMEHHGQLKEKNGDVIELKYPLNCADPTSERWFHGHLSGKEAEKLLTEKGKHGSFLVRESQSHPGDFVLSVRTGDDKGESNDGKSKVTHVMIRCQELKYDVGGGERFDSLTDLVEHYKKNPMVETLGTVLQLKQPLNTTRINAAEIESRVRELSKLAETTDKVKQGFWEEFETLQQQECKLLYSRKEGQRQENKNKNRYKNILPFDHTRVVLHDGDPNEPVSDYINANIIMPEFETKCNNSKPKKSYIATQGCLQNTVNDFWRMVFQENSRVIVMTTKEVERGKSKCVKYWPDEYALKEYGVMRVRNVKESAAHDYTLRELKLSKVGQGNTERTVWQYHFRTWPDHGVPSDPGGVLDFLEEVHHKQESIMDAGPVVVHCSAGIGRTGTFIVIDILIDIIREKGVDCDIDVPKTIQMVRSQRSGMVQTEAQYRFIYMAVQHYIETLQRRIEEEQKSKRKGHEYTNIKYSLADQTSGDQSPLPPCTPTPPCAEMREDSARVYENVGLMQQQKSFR

[15] = biological target: Tyrosine-protein phosphatase non-receptor type 5 (Homo sapiens, UniProt P54829); assay: STEP phosphatase inhibitors, confirmation, biochemical, fluorescence intensity, uHTS hits (AID 602372); type: functional; conditions: read-out: IC50_Mean
[16] = biological target: Dual specificity protein phosphatase 3 (Homo sapiens, UniProt P51452); assay: VHR phosphatase inhibition, dose response, selectivity assay for STEP inhibitor project, biochemical (AID 602374); type: functional; conditions: read-out: IC50_Mean
Sequence of Dual specificity protein phosphatase 3 (P51452 whole entry): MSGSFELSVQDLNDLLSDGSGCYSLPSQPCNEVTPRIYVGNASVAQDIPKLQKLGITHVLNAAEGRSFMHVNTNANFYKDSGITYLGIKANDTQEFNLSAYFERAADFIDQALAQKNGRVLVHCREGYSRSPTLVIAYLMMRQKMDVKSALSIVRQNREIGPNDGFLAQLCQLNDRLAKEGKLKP

[17] = biological target: Tyrosine-protein phosphatase non-receptor type 22 (Homo sapiens, UniProt Q9Y2R2); assay: PTPN22 phosphatase inhibition, dose response, selectivity assay for STEP inhibitor project, biochemical (AID 624241); type: functional
[18] = microbe, parasite or virus in culture; type: functional; conditions: Mycobacterium tuberculosis
[19] = biological target: Aryl hydrocarbon receptor (Homo sapiens, UniProt P35869); assay: Luminescence-based cell-based high throughput dose response assay for activators of the Aryl Hydrocarbon Receptor (AHR). [Related pubchem assays: 2796 (Primary screen (AHR activators in singlicate)), 2845 (Confirmation screen (AHR activators in triplicate)), 434939 (Counterscreen (PXR activators in triplicate)), 2804 (Summary (AHR activators))]; type: ADME
Sequence of Aryl hydrocarbon receptor (P35869 whole entry): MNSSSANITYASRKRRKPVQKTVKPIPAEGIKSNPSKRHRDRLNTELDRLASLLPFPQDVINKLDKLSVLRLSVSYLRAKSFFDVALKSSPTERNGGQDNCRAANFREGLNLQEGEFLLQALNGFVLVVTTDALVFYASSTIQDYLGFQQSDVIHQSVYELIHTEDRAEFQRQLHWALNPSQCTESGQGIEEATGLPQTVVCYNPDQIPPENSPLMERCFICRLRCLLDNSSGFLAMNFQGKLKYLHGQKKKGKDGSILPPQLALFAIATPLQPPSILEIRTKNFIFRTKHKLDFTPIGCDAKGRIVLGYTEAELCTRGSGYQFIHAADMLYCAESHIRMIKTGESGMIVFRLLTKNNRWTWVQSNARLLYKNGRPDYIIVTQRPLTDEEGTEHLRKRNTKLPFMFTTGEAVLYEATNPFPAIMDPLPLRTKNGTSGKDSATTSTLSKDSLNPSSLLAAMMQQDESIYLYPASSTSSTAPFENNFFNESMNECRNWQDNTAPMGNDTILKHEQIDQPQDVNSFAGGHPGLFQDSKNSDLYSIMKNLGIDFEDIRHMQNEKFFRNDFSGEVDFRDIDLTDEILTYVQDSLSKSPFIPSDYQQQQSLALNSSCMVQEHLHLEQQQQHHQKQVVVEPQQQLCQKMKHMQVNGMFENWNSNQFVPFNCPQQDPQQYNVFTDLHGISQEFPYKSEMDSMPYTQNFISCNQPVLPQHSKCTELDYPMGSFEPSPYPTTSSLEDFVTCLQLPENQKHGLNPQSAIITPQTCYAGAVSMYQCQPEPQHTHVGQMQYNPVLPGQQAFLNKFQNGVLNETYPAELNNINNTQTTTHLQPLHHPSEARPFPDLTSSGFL

[20] = THP-1 cell cytotoxicity, dose response, cytotoxicity control for non-replicating M. tuberculosis project (AID 489025); type: functional
[21] = Vero E6 cell cytotoxicity, dose response, cytotoxicity control for non-replicating M. tuberculosis project, secondary assay (AID 492998); type: functional, VeroE6; conditions: Vero C1008
cells = type: functional
Bcl-2-like protein 10 = biological target: T5, Bcl-2-like protein 10 (Homo sapiens, UniProt Q9HD36); assay: displacers of TR3 peptide from Bcl-B, primary screen, selectivity assay for Bfl-1 inhibitor project, biochemical, fluorescence polarization, FITC-TR3 peptide (AID 748);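 further: fluorescence polarization from a fluorescein-labelled TR3 peptide binding purified Bcl-B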
T5 sequence (Q9HD36 whole entry): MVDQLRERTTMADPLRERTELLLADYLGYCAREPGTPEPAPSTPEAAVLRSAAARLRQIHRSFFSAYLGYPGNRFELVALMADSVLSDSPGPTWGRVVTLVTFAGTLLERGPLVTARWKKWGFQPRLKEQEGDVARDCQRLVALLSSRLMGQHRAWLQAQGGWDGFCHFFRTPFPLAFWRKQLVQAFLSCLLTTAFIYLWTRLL

Estrogen receptor beta [22] = biological target: T6, Estrogen receptor beta (Homo sapiens, UniProt Q92731);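 further: recombinant ER-beta bound to coactivator SRC1 peptide in presence of estradiol agonist; inhibitors block coactivator peptide binding and lower the FRET signal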
T6 sequence (Q92731 whole entry): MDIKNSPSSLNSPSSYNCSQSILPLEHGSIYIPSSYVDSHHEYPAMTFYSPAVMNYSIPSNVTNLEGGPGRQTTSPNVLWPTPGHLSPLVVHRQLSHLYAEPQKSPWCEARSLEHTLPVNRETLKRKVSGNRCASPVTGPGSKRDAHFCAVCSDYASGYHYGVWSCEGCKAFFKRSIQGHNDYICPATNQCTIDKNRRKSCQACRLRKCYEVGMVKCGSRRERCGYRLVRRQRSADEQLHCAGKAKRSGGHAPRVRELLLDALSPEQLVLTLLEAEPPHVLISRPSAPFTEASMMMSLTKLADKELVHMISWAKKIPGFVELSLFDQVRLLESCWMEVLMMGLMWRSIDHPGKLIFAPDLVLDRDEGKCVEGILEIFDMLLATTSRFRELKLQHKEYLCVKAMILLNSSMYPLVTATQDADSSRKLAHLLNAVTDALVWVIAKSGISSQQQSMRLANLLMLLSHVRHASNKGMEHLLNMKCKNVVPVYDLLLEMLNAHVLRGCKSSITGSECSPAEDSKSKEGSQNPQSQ

Estrogen receptor beta [23] = biological target: T6, Estrogen receptor beta; assay: ERβ–SRC-3 coactivator interaction inhibitors, confirmation, orthogonal assay, biochemical, ELISA, streptavidin-HRP readout (AID 1060)
[24] = biological target: Sphingosine 1-phosphate receptor 2 (Homo sapiens, UniProt O95136); assay: Dose Response Cell-Based Assay for Agonists of the Sphingosine 1-Phosphate Receptor 2 (S1P2): Purchased Analogues. [Related pubchem assays: 1192, 373, 439 ]; type: functional
Sequence of Sphingosine 1-phosphate receptor 2 (O95136 whole entry): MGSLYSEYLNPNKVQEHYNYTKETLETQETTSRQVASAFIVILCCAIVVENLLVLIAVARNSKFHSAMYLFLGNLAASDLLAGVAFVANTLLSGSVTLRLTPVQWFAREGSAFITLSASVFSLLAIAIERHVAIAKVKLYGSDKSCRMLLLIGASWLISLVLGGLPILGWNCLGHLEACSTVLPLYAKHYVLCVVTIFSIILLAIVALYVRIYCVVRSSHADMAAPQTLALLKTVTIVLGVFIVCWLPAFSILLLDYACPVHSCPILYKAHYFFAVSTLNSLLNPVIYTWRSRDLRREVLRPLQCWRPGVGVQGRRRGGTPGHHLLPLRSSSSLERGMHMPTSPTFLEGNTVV

[25] = biological target: Sphingosine 1-phosphate receptor 1 (Homo sapiens, UniProt P21453); assay: Dose Response Cell-Based Assay for Agonists of the Sphingosine 1-Phosphate Receptor 1 (S1P1): Purchased Analogues. [Related pubchem assays: 1192, 373, 439 ]; type: functional
[26] = biological target: Sphingosine 1-phosphate receptor 3 (Homo sapiens, UniProt Q99500); assay: Dose Response Cell-Based Assay for Agonists of the Sphingosine 1-Phosphate Receptor 3 (S1P3): Purchased Analogues. [Related pubchem assays: 373, 439 ]; type: functional

With Nc1ccc(S(=O)(=O)Nc2nc3ccccc3o2)cc1 the IC50 [1] was > 109 µM (not active), the IC50 (Bcl-2-like protein 1) was > 109 µM (not active) and the AC50 (Caspase-6) was 42.1 µM (active).
With Cc1sc(NC(=O)CSc2nnc(-c3ccc(F)cc3)o2)c(C#N)c1C the IC50 [2] was 10.5 µM (active) and the IC50 (Estrogen receptor) was > 50 µM (not active).
For COc1ccc2nc(O)c(-c3noc(-c4ccccc4)n3)cc2c1, the IC50 [3] was 4.23 µM (active), the IC50 (Bcl-2-related protein A1 [4]) was 24.6 µM (active) and the IC50 (Bcl-2-related protein A1 [5]) was > 100 µM (not active). For the same molecule, the IC50 [6] was > 2.57 µM (not active), the IC50 [7] was > 10 µM (not active) and the IC50 [8] was 7.01 µM (active).
In the case of Cc1cc(/C=C(/C#N)c2cccc(F)c2)c(C)n1-c1cccnc1, the IC50 [9] is reported as > 100 µM (active).
For C=CCNC(=O)/C(C#N)=C/c1cn(-c2ccccc2)nc1-c1cccs1, the EC50 (Galanin receptor type 2) was 45.4 µM (not active).
For COc1ccc(C2SCC(=O)N2c2c(C)n(C)n(-c3ccccc3)c2=O)cc1OC (stereo not drawn), the EC50 [10] was > 120 µM (not active).
With O=C(NCc1ccco1)c1cccc(-n2sc3ccccc3c2=O)c1 the IC50 [11] was 10.5 µM (active).
For COc1ccc(-c2ccc(NC(=O)c3ccc(Br)o3)cc2)nn1, the IC50 [12] was 4.7 µM (active), the IC50 [13] was 3.38 µM (active) and the IC50 [14] was 4.3 µM (active). For the same molecule, the IC50 [15] was 18 µM (active), the IC50 [16] was 6.6 µM (active) and the IC50 [17] was 74.1 µM (inactive).
For O=[N+]([O-])c1cc(-c2nc(-c3ccncc3)no2)cc([N+](=O)[O-])c1, the CC50 [18] was > 40 µM (active), the EC50 [19] was 2.67 µM (active) and the CC50 [20] was 37.5 µM (active). For the same molecule, the CC50 [21] was > 20 µM (active) and the IC50 (cells) was 3.13 µM (active).
With Cc1ccc(S(=O)(=O)N2CCCCC2)cc1C(=O)Nc1nc[nH]n1 the IC50 (Bcl-2-like protein 10) was 27.7 µM (active), the IC50 (Estrogen receptor) was > 50 µM (not active) and the IC50 (Estrogen receptor beta [22]) was 8.84 µM (active). The IC50 (Estrogen receptor beta [23]) was > 109 µM (not active).
In the case of Cc1ccc(-c2cc(C(=O)N(C)C3CCCCC3)no2)cc1, the EC50 [24] is reported as > 10 µM (not active), the EC50 [25] is reported as 0.724 µM (active) and the EC50 [26] is reported as > 50 µM (not active).
